Data taken from patent US9198422B2, “Pesticidal pyrazole compounds” (BASF SE, priority 2011, dated 2015).

Assays:
Format in all cases: in vivo
Bemisia argentifolii = assay: B.3 Silverleaf whitefly, adult, spray test on cotton plants; conditions: for mortality at 1 ppm / mortality at 3 ppm / mortality at 100 ppm: read-out: % mortality in comparison to untreated controls; for mortality at 10 ppm: 72 h, 3 days after treatment, read-out: mortality in comparison with untreated controls
Description: B.3 Silverleaf Whitefly (Bemisia argentifolii, Adult)
(§1) The active compounds were formulated in cyclohexanone as a 10,000 ppm solution supplied in 1.3 ml ABgene® tubes. These tubes were inserted into an automated electrostatic sprayer equipped with an atomizing nozzle and they served as stock solutions for which lower dilutions were made in 1:1 (vol:vol) water:aceton. A nonionic surfactant (Kinetic®) was included in the solution at a volume of 0.01% (v/v).
Cotton plants at the cotyledon stage (one plant per pot) were sprayed by an automated electrostatic plant sprayer equipped with an atomizing spray nozzle. The plants were dried in the sprayer fume hood and then removed from the sprayer. Each pot was placed into a plastic cup and 10 to 12 whitefly adults (approximately 3-5 days old) were introduced. The insects were collected using an aspirator and 0.6 cm, nontoxic Tygon® tubing (R-3603) connected to a barrier pipette tip. The tip, containing the collected insects, was then gently inserted into the soil containing the treated plant, allowing insects to crawl out of the tip to reach the foliage for feeding. Cups were covered with a reusable screened lid (150-micron mesh polyester screen PeCap from Tetko, Inc.). Test plants were maintained in a growth room at 25° C. and 20-40% relative humidity for 3 days, avoiding direct exposure to fluorescent light (24 hour photoperiod) to prevent trapping of heat inside the cup. Mortality was assessed 3 days after treatment, compared to untreated control plants.

Nephotettix virescens = assay: B.9 Rice green leafhopper spray test on rice seedlings; conditions: 72 h, after 72 hours, read-out: mortality in comparison with untreated controls
Description: B.9 Rice Green Leafhopper (Nephotettix virescens)
Rice seedlings were cleaned and washed 24 hours before spraying. The active compounds were formulated in 1:1 (vol:vol) water:aceton, and 0.1% vol/vol surfactant (EL 620) was added. Potted rice seedlings were sprayed with 5 ml test solution, air dried, placed in cages and inoculated with 10 adults. Treated rice plants were kept at 28-29° C. and relative humidity of 50-60%. Percent mortality was recorded after 72 hours.

Dichromothrips corbetti = assay: B.8 Orchid thrips petal dip test; conditions: 72 h, after 72 hours, read-out: mortality in comparison with untreated controls
Description: B.8 Orchid Thrips (Dichromothrips corbetti)
The active compounds were formulated as a 1:1 (vol:vol) water:aceton solution. Surfactant (Alkamuls EL 620) was added at the rate of 0.1% (vol/vol). Vanda orchids petals were cleaned, washed and air dried prior to spraying. Petals were dipped into the test solution for 3 seconds, air dried, placed inside a resealable plastic and inoculated with 20 adults. The treated petals were kept inside the holding room at 28-29° C. and relative humidity of 50-60%. Percent mortality was recorded after 72 hours.

Plutella xylostella = assay: B.10 Diamondback moth cabbage leaf disk dip test; conditions: 500 ppm; 72 h
Description: B.10 Diamondback Moth (Plutella xylostella)
The active compounds were formulated in 1:1 (vol:vol) water:aceton and 0.1% (vol/vol) Alkamuls EL 620 surfactant. A 6 cm leaf disk of cabbage leaves was dipped in the test solution for 3 seconds and allowed to air dry in a Petri plate lined with moist filter paper. The leaf disk was inoculated with 10 third instar larvae and kept at 25-27° C. and 50-60% humidity for 3 days. Mortality was assessed after 72 h of treatment.

Aphis craccivora = assay: B.1 Cowpea aphid spray test on potted cowpea plants; conditions: for mortality at 0.3 ppm: read-out: % mortality in comparison to untreated controls; for mortality at 500 ppm: population reduction assessed after 24, 72 and 120 hours, read-out: mortality in comparison with untreated controls
Description: If not otherwise specified the test solutions were prepared as follows:
The active compound was dissolved at the desired concentration in a mixture of 1:1 (vol:vol) distilled water:aceton. The test solution was prepared at the day of use and in general at concentrations of ppm (wt/vol).
B.1 Cowpea Aphid (Aphis craccivora)
Potted cowpea plants colonized with 100-150 aphids of various stages were sprayed after the pest population had been recorded. Population reduction was assessed after 24, 72, and 120 hours.

Aphis gossypii = assay: B.2 Cotton aphid, mixed life stages, spray test on cotton plants; conditions: for mortality at 3 ppm / mortality at 0.1 ppm: read-out: % mortality in comparison to untreated controls; for mortality at 10 ppm: 120 h, after 5 days, read-out: mortality in comparison with untreated controls
Description: B.2 Cotton Aphid (Aphis gossypii, Mixed Life Stages)
as §1
Cotton plants at the cotyledon stage were infested with aphids prior to treatment by placing a heavily infested leaf from the main aphid colony on top of each cotyledon. Aphids were allowed to transfer overnight to accomplish an infestation of 80-100 aphids per plant and the host leaf was removed. The infested plants were then sprayed by an automated electrostatic plant sprayer equipped with an atomizing spray nozzle. The plants were dried in the sprayer fume hood, removed from the sprayer, and then maintained in a growth room under fluorescent lighting in a 24-hr photoperiod at 25° C. and 20-40% relative humidity. Aphid mortality on the treated plants, relative to mortality on untreated control plants, was determined after 5 days.

Myzus persicae = assay: B.5 Green peach aphid spray test on bell pepper plants; conditions: for mortality at 10 ppm: 120 h, after 5 days, read-out: mortality in comparison with untreated controls; for mortality at 0.1 ppm: read-out: % mortality in comparison to untreated controls
Description: B.5 Green Peach Aphid (Myzus persicae)
as §1
Bell pepper plants at the first true-leaf stage were infested prior to treatment by placing heavily infested leaves from the main colony on top of the treatment plants. Aphids were allowed to transfer overnight to accomplish an infestation of 30-50 aphids per plant and the host leaves were removed. The infested plants were then sprayed by an automated electrostatic plant sprayer equipped with an atomizing spray nozzle. The plants were dried in the sprayer fume hood, removed, and then maintained in a growth room under fluorescent lighting in a 24 hour photoperiod at 25° C. and 20-40% relative humidity. Aphid mortality on the treated plants, relative to mortality on untreated control plants, was determined after 5 days.

Megoura viciae = assay: B.4 Vetch aphid bean leaf disk microtiter test; conditions: foliar, 144 h, 6 days, read-out: mortality in comparison with untreated controls
Description: B.4 Vetch Aphid (Megoura viciae)
The active compounds were formulated in 3:1 (vol:vol) water:DMSO with different concentrations of formulated compounds.
Bean leaf disks were placed into microtiterplates filled with 0.8% agar-agar and 2.5 ppm OPUS™. The leaf disks were sprayed with 2.5 μl of the test solution and 5 to 8 adult aphids were placed into the microtiter plates which were then closed and kept at 23±1° C. and 50±5% relative humidity under fluorescent light for 6 days. Mortality was assessed on the basis of vital, reproduced aphids. Aphid mortality and fecundity was then visually assessed.

Anthonomus grandis = assay: B.6 Boll weevil insect diet microtiter test; conditions: 120 h, egg and larval mortality, 5 days, read-out: mortality in comparison with untreated controls
Description: B.6 Boll Weevil (Anthonomus grandis)
The compounds were formulated in 3:1 (vol:vol) water:DMSO.
For evaluating control of boll weevil (Anthonomus grandis) the test unit consisted of 24-well-microtiter plates containing an insect diet and 20-30 A. grandis eggs. Different concentrations of formulated compounds were sprayed onto the insect diet at 20 μl, using a custom built micro atomizer, at two replications. After application, the microtiter plates were incubated at 23±1° C. and 50±5% relative humidity for 5 days. Egg and larval mortality was then visually assessed.

SMILES | mortality at 1 ppm (Bemisia argentifolii) | mortality at 0.3 ppm (Aphis craccivora) | mortality at 10 ppm (Bemisia argentifolii) | mortality at 10 ppm (Myzus persicae) | mortality at 500 ppm (Aphis craccivora) | mortality at 10 ppm (Aphis gossypii) | mortality at 2500 ppm (Megoura viciae) | other results
Cc1c(C(=O)Nc2ccnnc2)cnn1C(C)C [#5 of Table 14 in WO10/034737, reference compound] | 0% |  |  |  |  |  |  | mortality at 500 ppm (Nephotettix virescens): 0%
CCN(C(=O)c1cnn(C(C)C)c1C)c1ccnnc1 [#5 of Table 98 in WO10/034737, reference compound] | 0% |  |  |  |  |  |  | mortality at 3 ppm (Bemisia argentifolii): 0%; mortality at 500 ppm (Dichromothrips corbetti): 0%; feeding damage (FD) (Plutella xylostella): 100%
Cc1c(C(=O)Nc2ccnnc2)cnn1C(C)(C)C [#7 of Table 14 in WO10/034737, reference compound] |  | 0% |  |  |  |  |  | mortality at 3 ppm (Aphis gossypii): 25%
Cc1c(C(=O)N(C)c2cccnc2)cnn1CC(F)(F)F [#173 in WO09/027393, reference compound] |  |  | 25% | 50% |  |  |  | 
CCN(C(=O)c1cnn(CC(C)C)c1C)c1ccnnc1 [#175 in WO10/034737, reference compound] |  | 0% |  |  |  |  |  | mortality at 0.1 ppm (Aphis gossypii): 0%; mortality at 0.1 ppm (Myzus persicae): 0%
CCn1ncc(C(=O)N(C)c2cccnc2)c1C [#180 in WO09/0027393, reference compound] |  |  |  |  |  |  |  | mortality at 100 ppm (Bemisia argentifolii): 0%
Cc1c(C(=O)Nc2ccnnc2)cnn1C(C)(C)C#N [I-32] | 100% | 100% | ≥ 75% | ≥ 75% | ≥ 75% | ≥ 75% | ≥ 75% | mortality at 3 ppm (Aphis gossypii): 90%; mortality at 500 ppm (Nephotettix virescens): ≥ 75%
Cc1c(C(=O)Nc2ccnnc2)cnn1C(C(F)(F)F)C(F)(F)F [I-34, 5-methyl-1-(2,2,2-trifluoro-1-trifluoromethyl-ethyl)-1H-pyrazole-4-carboxylic acid pyridazin-4-ylamide] |  |  |  | ≥ 75% | ≥ 75% |  | ≥ 75% | 
Cc1c(C(=O)N(C)c2ccnnc2)cnn1C(C(F)(F)F)C(F)(F)F [I-38, N,5-dimethyl-N-pyridazin-4-yl-1-[2,2,2-trifluoro-1-(trifluoromethyl)ethyl]pyrazole-4-carboxamide] |  |  |  | ≥ 75% | ≥ 75% | ≥ 75% | ≥ 75% | 
CCN(C(=O)c1cnn(C(C)C(C)C)c1C)c1ccnnc1 (centres unmarked) [I-98] |  | 75% | ≥ 75% | ≥ 75% | ≥ 75% | ≥ 75% | ≥ 75% | mortality at 0.1 ppm (Aphis gossypii): 95%; mortality at 3 ppm (Bemisia argentifolii): 75%; mortality at 0.1 ppm (Myzus persicae): 95%; mortality at 2500 ppm (Anthonomus grandis): ≥ 75%; feeding damage (FD) (Plutella xylostella): 25%
CCN(C(=O)c1cnn(C(C)C2(C#N)CC2)c1C)c1ccnnc1 (centres unmarked) [I-198] | 100% |  | ≥ 75% | ≥ 75% | ≥ 75% | ≥ 75% |  | mortality at 500 ppm (Dichromothrips corbetti): ≥ 75%
CCN(C(=O)c1cnn(C(C)C(F)F)c1C)c1ccnnc1 (centres unmarked) [I-201] | 100% |  | ≥ 75% | ≥ 75% | ≥ 75% | ≥ 75% |  | mortality at 500 ppm (Dichromothrips corbetti): ≥ 75%
Cc1c(C(=O)N(C)c2cccnc2)cnn1C(C)C(F)(F)F (centres unmarked) [I-377] |  |  | ≥ 75% |  | ≥ 75% | ≥ 75% | ≥ 75% | mortality at 100 ppm (Bemisia argentifolii): 100%; mortality at 2500 ppm (Anthonomus grandis): ≥ 75%
